Laboratory results from PMC6312359, “Diisopropylphenyl-imidazole (DII): A new compound that exerts anthelmintic activity through novel molecular mechanisms” (PLoS Neglected Tropical Diseases, 2018).
Entries after “also recorded” stand apart in the source; their conditions may differ.

Experiments:
[1] = tested on: Drosophila melanogaster; experiment: Drosophila melanogaster larval viability; type: in vivo; details: 300–1200 μM in food, about 40 h of exposure
Procedure: All experiments were done at 25°C, under a 12:12 dark:light cycle using the w^1118 strain. Mated females were allowed to lay eggs for 4 h on apple juice egg laying plates supplemented with a thin layer of normal fly food. 2 h after the initiation of egg laying was considered time "0". 30–40 late L2 larvae (66 h after egg laying) were transferred from the plates to tubes containing 3 ml of fly food with 300, 600 and 1200 μM DII or the corresponding concentration of dimethylsulfoxide (DMSO, molecular biology grade, AppliChem). Under these conditions, larvae were exposed to DII until they left the food to pupariate about 40 h later. Larval viability was calculated as the percentage of larvae that reached the pupal stage.
To add drugs, fly food was melted and cooled to 60°C, 3 ml of food were dispensed in tubes and an appropriate volume of DMSO or drug was added and thoroughly mixed. Control tubes without DMSO and […] were prepared following the same procedure. The experiment was independently repeated at least three times.

[2] = tested on: C. elegans; experiment: Body length measurements; type: in vivo, Caenorhabditis elegans; details: 600 μM, 2 h
Procedure: Vehicle (0.75% DMSO) was used as a control. After 2 h, images were acquired and body length was measured using FIJI-ImageJ software. At least three independent experiments were analyzed.

[3] = tested on: HEK-293 cells; experiment: Human cell toxicity, propidium iodide staining; type: cell-based
Procedure: HEK-293 cells were cultured in DMEM medium (Gibco, USA) containing 10% fetal bovine serum (FBS) (Gibco, USA) and penicillin/streptomycin (Gibco, USA) at 37°C in an atmosphere containing 5% CO2. Before DII exposure, cells were dissociated using trypsin-EDTA and seeded in 96 multiwell plates at a density of 1x10^4 cells/ml. Cells were resuspended in fresh medium and different drug concentrations were subsequently added. After 8 h of incubation with 0, 200 and 600 μM of DII or 96 h of incubation with 0 and 100 μM of DII, cells were washed 3 times with PBS and propidium iodide (PI, final concentration 50 μg/ml) was added to stain dead cells. PI incubation was performed for 10 min in the dark at room temperature. DMSO (0–0.7%) and chloroquine (50–200 μM) were used as vehicle and positive controls, respectively. Images were acquired with a Nikon Eclipse TE 2000 fluorescence microscope. The number of stained cells was analyzed manually. At least 3 independent experiments were analyzed.

[4] = tested on: E. coli OP50; experiment: OP50 growth in screening wells (qualitative); type: cell-based, Escherichia coli; details: 150 μg/ml, qualitative observation
Source text: During the screening assays, we qualitatively noticed that OP50 growth was inhibited in wells containing MI. This effect was not observed with DII. To quantify this observation, we determined minimum inhibitory concentration (MIC) and minimum bactericidal concentration (MBC) of both compounds in E. coli cultures (Fig 2A). […] Similar values were obtained when we performed these assays on S. aureus, a Gram-positive bacteria (Fig 2A). […] As we are here screening for specific anthelmintic activity, we restricted our further analysis to compounds that appear to exert nematicidal action without obvious lethal effects on other organisms. Therefore, we focused our studies only on DII, relegating the evaluation of MI as a potential anthelmintic drug.

[5] = tested on: C. elegans; experiment: Egg-laying assays; type: in vivo, Caenorhabditis elegans; details: gravid worms
Procedure: Age-synchronized gravid worms were transferred to solid NGM plates containing different drug concentrations (100–300 μM). Each concentration was evaluated in triplicate and DMSO was used as a control. After 1 h, the number of laid eggs per worm was counted. This experiment was independently repeated three times.

[6] = tested on: C. elegans; experiment: Acute paralysis assays; type: in vivo, Caenorhabditis elegans; details: 10 min
Procedure: Acute paralysis assays were carried out in microtiter plates containing the drug dissolved in M9 buffer. […] Each drug concentration was tested in two wells (containing 30 animals each) within a single experiment. […] The experiment was independently repeated at least three times.

[7] = tested on: C. elegans; experiment: Recovery assays; type: in vivo, Caenorhabditis elegans; details: 600 μM, 4 and 8 h of exposure, scored 24 h later
Procedure: To evaluate the recovery capacity of worms treated with DII, ~100 L4 worms were transferred to NGM plates containing DII (600 μM). After 4 and 8 h of exposure, those animals that survived were transferred to regular NGM plates. Worm viability was scored 24 h later. Results are expressed as the percentage of alive animals 24 h after being transferred to regular NGM plates. The experiment was independently repeated three times.

[8] = tested on: C. elegans; experiment: Pharyngeal pumping; type: in vivo, Caenorhabditis elegans; details: wild-type and unc-29 young adults, two hours of exposure; listed as DII
Procedure: Supplementary file pntd.0007021.s006.tif: S6 Fig DII effects on pharyngeal pumping. Wild-type and unc-29 young adult worms (24 h past L4) were transferred to bacteria-seeded NGM plates containing different DII concentrations. After two hours of DII exposure, the number of contractions in the terminal bulb of the pharynx (pumps per minute) was counted using a stereomicroscope at 50x magnification. […] Bars represent the mean ± SEM from n = 20 animals per condition. Statistical differences compared to the non-treated condition (0 μM DII) within the same strain (ns: no statistically significant p>0.05, ***p<0.001). (TIF) Click here for additional data file.

[9] = tested on: C. elegans; experiment: Toxicity at early developmental stages (eggs, hatching, developmental rate); type: in vivo, Caenorhabditis elegans
Procedure: Briefly, gravid worms were collected and exposed to an alkaline hypochlorite solution (0.5 M NaOH and 1% NaOCl) to destroy adult worm tissues (eggs are resistant to bleach due to their chitin eggshell). Eggs were subsequently isolated with a sterile 60% sucrose solution and seeded on 35 mm NGM plates containing DII (100, 300 and 600 μM) or DMSO as a control. Hatched animals were quantified after 48 h. The results were expressed as follows: Number of living animals x 100/ Total number of eggs seeded. This experiment was independently repeated three times.
For ovicidal assessment, isolated eggs were seeded in NGM plates containing DII (600 μM) and video-recorded for 12 h. An egg was considered as non-viable if no hatching was observed during the recorded time.
The number of animals at different developmental stages (L1-L3, L4, and adults) was counted at 24, 48 and 72 h. The results were expressed as the number of animals at a given stage x 100/ Total number of living worms at that time point. This experiment was independently repeated three times.

[10] = eggs exposed to 600 μM, 24, 48 and 72 h

## CC(C)c1cccc(C(C)C)c1-n1ccnc1 [Compound 11]
[1]
  larval viability (larvae that reached the pupal stage): does not affect Drosophila larval viability
[2]
  body length: no significant changes
[3]; 0–600 μM, 8 h
  cell viability: do not affect viability on HEK-293 cells
[3]; up to 100 μM, 96 h
  cell viability: do not affect cell viability
[4]
  OP50 growth in screening wells: not observed
[5]; 100 μM
  laid eggs in 1 h, fold more than controls: did not produce an increase
[5]; 300 μM, 1 h
  reduction in the number of laid eggs: 3.6 fold
[6]; 100 μM
  paralysis in CB407 unc-49(e407)III hypersensitive strain: no paralyzing effects
[6]; 800 μM (highest concentration tested)
  immobilized animals: 25%
[6]; DII 100 and 200 μM, intact animals
  change of the dose-effect curve of levamisole by DII: no significant changes
[7]
  recovery of survivors after transfer to regular NGM plates: reversible
[8]
  pharyngeal pumping rate: inhibits the pharyngeal pumping; also recorded: decreases pharyngeal pumping rate
[9]; 600 μM, within 12 hours, video recording
  eggs hatched: 100%
[9]; [10]
  developmental rate, unc-29 null mutants: delays the development
  developmental rate, wild-type: delays nematode development
[9]; eggs exposed to 100, 300 and 600 μM, 48 h
  number of viable animals relative to eggs seeded: significantly reduced
[9]; eggs on DII-containing plates (600 μM), 72 h
  survivors that were adults: less than 5%
